This is an account of results in patent US10766869B2, “Triazoles for the treatment of demyelinating dieases” (Vertex Pharmaceuticals Incorporated, priority 2015, dated 2020).

Like-named read-outs stand apart in the source and are kept apart here. Some results are limits rather than exact numbers.

The assay deals with primary rat mixed cortical cells. The experiment in a line: In vitro myelination assay (MBP positive myelin strands, fold myelin pixels above background). It is filed as cell-based. The following applies: Rattus norvegicus; for fold induction at 1 µM: 1.0 μM compound; for fold induction at 10 µM: 10.0 μM compound. Summed up:
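Read-out is total MBP-positive myelin strand pixels per well, detected by custom ridge-tracing software and reported as fold over untreated baseline. Primary P1 rat mixed cortical cells received compound (1.0 or 10.0 μM) for 14 days, with medium half-replaced on days 6 and 10. Standard deviation was taken across all replicates.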

Setting [1] is: relative to baseline of no added compound, read-out: Fold myelin pixels above background, 1.0 μM.
[2] abbreviates: relative to baseline of no added compound, read-out: Fold myelin pixels above background, 10.0 μM.
[3] abbreviates: relative to baseline of no added compound, read-out: Fold myelin pixels above background.
Setting [4] is: read-out: Fold myelin pixels above background relative to baseline of no added compound.

`COc1cc(F)cc(-n2cnc(Nc3cc(C)cc(N4CCN(C5COC5)CC4)c3)n2)c1` [Compound 56, 1-(3-fluoro-5-methoxy-phenyl)-N-[3-methyl-5-[4-(oxetan-3-yl)piperazin-1-yl]phenyl]-1,2,4-triazol-3-amine]: under setting [1], the fold induction at 1 µM lay within 100 to 1000. Also, the fold induction at 10 µM under setting [2] lay in the range of 100 to 1000.

For `Cc1cc(Nc2ncn(-c3cc(F)cc(F)c3)n2)nc(N2CCN([C@H]3CCOC3)CC2)c1` (single isomer, unassigned) [Compound 740], under setting [3], the fold induction at 1 µM lay in the range of 10 to 100 and the fold induction at 10 µM lay in the range of 10 to 100.

As to `CN1CCCN(c2cc(F)cc(Nc3ncn(-c4ccc(F)cc4F)n3)c2)CC1` [Compound 28, 1-(2,4-difluorophenyl)-N-[3-fluoro-5-(4-methyl-1,4-diazepan-1-yl)phenyl]-1,2,4-triazol-3-amine], the fold induction at 1 µM under setting [1] is ≤ 1. For the same compound, the fold induction at 10 µM under setting [2] was ≤ 1.

On to `FC(F)(F)c1cc(Nc2ncn(-c3cnccn3)n2)nc(N2CCN(C3COC3)CC2)c1` [Compound 712, 6-[4-(oxetan-3-yl)piperazin-1-yl]-N-(1-pyrazin-2-yl-1,2,4-triazol-3-yl)-4-(trifluoromethyl)pyridin-2-amine], for which, under setting [3], the fold induction at 1 µM lay within 1 to 10 and the fold induction at 10 µM was 1 to 10.

`Cc1cc(Nc2ncn(-c3cc(F)cc(F)c3)n2)cc(NC2CCCN(CCF)C2)c1` (stereo not drawn) [Compound 873, N3-[1-(3,5-difluorophenyl)-1,2,4-triazol-3-yl]-N1-[1-(2-fluoroethyl)-3-piperidyl]-5-methyl-benzene-1,3-diamine]: under setting [4], the fold induction at 1 µM is 1 to 10 and the fold induction at 10 µM was ≤ 1.

Regarding `Cc1cc(Nc2ncn(-c3cc(F)cc(F)c3)n2)cc(N2CCN(C3CCCOC3)CC2)c1` (stereo not drawn) [Compound 199, 1-(3,5-difluorophenyl)-N-[3-methyl-5-(4-tetrahydropyran-3-ylpiperazin-1-yl)phenyl]-1,2,4-triazol-3-amine], the fold induction at 1 µM under setting [1] was 100 to 1000. The fold induction at 10 µM under setting [2] fell in the range of 100 to 1000.

For the compound `CC(=O)N1CCCC(c2cc(C)cc(Nc3ncn(-c4ccncn4)n3)c2)C1` (stereo not drawn) [Compound 449, 1-[3-[3-methyl-5-[(1-pyrimidin-4-yl-1,2,4-triazol-3-yl)amino]phenyl]-1-piperidyl]ethanone], under setting [3], the fold induction at 1 µM was in the range of 100 to 1000 and the fold induction at 10 µM is ≤ 1.

Regarding `CN1CCN(c2cc(Nc3ncn(-c4ccccc4)n3)cc(C(F)(F)F)c2)CC1` [Compound 486, N-[3-(4-methylpiperazin-1-yl)-5-(trifluoromethyl)phenyl]-1-phenyl-1,2,4-triazol-3-amine], under setting [3], the fold induction at 1 µM lay within 100 to 1000 and the fold induction at 10 µM was ≤ 1.

`CN1CCN(c2cc(Nc3ncn(-c4ccc(F)c(F)c4)n3)cc(C(F)(F)F)c2)CC1` [Compound 412, 1-(3,4-difluorophenyl)-N-[3-(4-methylpiperazin-1-yl)-5-(trifluoromethyl)phenyl]-1,2,4-triazol-3-amine]: under setting [3], the fold induction at 1 µM is 1000 to 10000 and the fold induction at 10 µM was ≤ 1.

For the compound `O=c1cc(-n2cnc(Nc3cc(C(F)F)cc(N4CCN(C5COC5)CC4)c3)n2)cc[nH]1` [Compound 163, 4-[3-[3-(difluoromethyl)-5-[4-(oxetan-3-yl)piperazin-1-yl]anilino]-1,2,4-triazol-1-yl]-1H-pyridin-2-one], the fold induction at 1 µM under setting [1] fell in the range of 100 to 1000. Moreover, the fold induction at 10 µM under setting [2] was ≤ 1.

With `Cc1cc(Nc2ncn(-c3cc(F)cc(F)c3)n2)cc(N2CCN3CC(F)(F)C[C@H]3C2)c1` [Compound 831, N-[3-[(8aS)-7,7-difluoro-13,4,6,8,8a-hexahydropyrrolo[1,2-a]pyrazin-2-yl]-5-methyl-phenyl]-1-(3,5-difluorophenyl)-1,2,4-triazol-3-amine], under setting [4], the fold induction at 1 µM lay within 10 to 100 and the fold induction at 10 µM lay within 10 to 100.

Take `Cc1cc(Nc2ncn(-c3cc(F)cc(F)c3)n2)cc(N2CCC(N3CCCC3)C2)c1` (stereo not drawn) [Compound 1060, 1-(3,5-difluorophenyl)-N-[3-methyl-5-(3-pyrrolidin-1-ylpyrrolidin-1-yl)phenyl]-1,2,4-triazol-3-amine]: under setting [4], the fold induction at 1 µM lay within 1 to 10 and the fold induction at 10 µM is ≤ 1.

On to `Cc1cc(Nc2ncn(-c3cc(F)cc(F)c3)n2)cc(O[C@@H]2CCCN(C3COC3)C2)c1` (single isomer, unassigned) [Compound 748], for which, under setting [3], the fold induction at 1 µM is 10 to 100 and the fold induction at 10 µM was ≤ 1.

On to `F[C@@H]1CCN(c2cc(Nc3ncn(-c4ccccc4)n3)cc(C3CC3)n2)C1` [Compound 296, 2-cyclopropyl-6-[(3R)-3-fluoropyrrolidin-1-yl]-N-(1-phenyl-1,2,4-triazol-3-yl)pyridin-4-amine], for which, under setting [1], the fold induction at 1 µM was 100 to 1000. Further, the fold induction at 10 µM under setting [2] was in the range of 10 to 100.

In the case of `Cc1cc(Nc2ncn(-c3cc(F)cc(F)c3)n2)cc(N2CCN(C3CCCC3O)CC2)c1` (stereo not drawn) [Compound 875, 2-[4-[3-[[1-(3,5-difluorophenyl)-1,2,4-triazol-3-yl]amino]-5-methyl-phenyl]piperazin-1-yl]cyclopentanol], under setting [4], the fold induction at 1 µM fell in the range of 10 to 100 and the fold induction at 10 µM was ≤ 1.

As to `Cc1cc(Nc2ncn(-c3cc(F)cc(F)c3)n2)cc(N2CCCC2CN2CCOCC2)c1` (stereo not drawn) [Compound 1012, 1-(3,5-difluorophenyl)-N-[3-methyl-5-[2-(morpholinomethyl)pyrrolidin-1-yl]phenyl]-1,2,4-triazol-3-amine], under setting [4], the fold induction at 1 µM lay in the range of 1 to 10 and the fold induction at 10 µM was ≤ 1.

As to `CN1CCN(c2cc(Nc3ncn(-c4cccc(F)c4)n3)cc(C(F)(F)F)c2)CC1` [Compound 257, 1-(3-fluorophenyl)-N-[3-(4-methylpiperazin-1-yl)-5-(trifluoromethyl)phenyl]-1,2,4-triazol-3-amine], under setting [1], the fold induction at 1 µM lay within 100 to 1000. For the same compound, the fold induction at 10 µM under setting [2] was ≤ 1.

For the compound `Fc1cc(Nc2ncn(-c3cc(F)cc(F)c3)n2)cc(NC2COC2)c1` [Compound 686, N3-[1-(3,5-difluorophenyl)-1,2,4-triazol-3-yl]-5-fluoro-N1-(oxetan-3-yl)benzene-1,3-diamine], under setting [3], the fold induction at 1 µM fell in the range of 1 to 10 and the fold induction at 10 µM was 1 to 10.

On to `COc1cc(Nc2ncn(-c3cc(F)cc(F)c3)n2)cc(N2CCN(C3COC3)CC2)c1` [Compound 310, 1-(3,5-difluorophenyl)-N-[3-methoxy-5-[4-(oxetan-3-yl)piperazin-1-yl]phenyl]-1,2,4-triazol-3-amine], for which the fold induction at 1 µM under setting [1] fell in the range of 1000 to 10000. In addition, the fold induction at 10 µM under setting [2] was in the range of 100 to 1000.

Regarding `Cc1cc(Nc2ncn(-c3cc(F)cc(F)c3)n2)cc(N2CCN(C)C3(COC3)C2)c1` [Compound 349, 1-(3,5-difluorophenyl)-N-[3-methyl-5-(9-methyl-2-oxa-6,9-diazaspiro[3.5]nonan-6-yl)phenyl]-1,2,4-triazol-3-amine], under setting [1], the fold induction at 1 µM was 10 to 100. In addition, under setting [2], the fold induction at 10 µM lay in the range of 100 to 1000.

As to `FC(F)c1cc(Nc2ncn(-c3ccccc3)n2)cc(N2CCN(C3CC3)CC2)c1` [Compound 348, N-[3-(4-cyclopropylpiperazin-1-yl)-5-(difluoromethyl)phenyl]-1-phenyl-1,2,4-triazol-3-amine], the fold induction at 1 µM under setting [1] was 1000 to 10000. In addition, the fold induction at 10 µM under setting [2] fell in the range of 100 to 1000.
